In PubChem BioAssay (NCI):
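Interpolation was linear, between the two tested concentrations surrounding the appropriate level; five concentrations were tested over 48 hours in 96-well plates. TGI denotes the concentration required for complete inhibition of growth.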

Assays:
Assay in all cases: NCI anticancer screen, dose series, 48 h
786-0 renal = tested on: 786-0 renal
A498 renal = tested on: A498 renal
A549 NSCLC = tested on: A549 NSCLC
ACHN renal = tested on: ACHN renal
BT-549 breast = tested on: BT-549 breast
CAKI-1 renal = tested on: CAKI-1 renal
CCRF-CEM leukemia = tested on: CCRF-CEM leukemia
COLO 205 colon = tested on: COLO 205 colon
DU-145 prostate = tested on: DU-145 prostate
EKVX NSCLC = tested on: EKVX NSCLC
HCC-2998 colon = tested on: HCC-2998 colon
HCT-116 colon = tested on: HCT-116 colon
HCT-15 colon = tested on: HCT-15 colon
HL-60(TB) leukemia = tested on: HL-60(TB) leukemia
HOP-62 NSCLC = tested on: HOP-62 NSCLC
HOP-92 NSCLC = tested on: HOP-92 NSCLC
HS 578T breast = tested on: HS 578T breast
HT29 colon = tested on: HT29 colon
IGROV1 ovarian = tested on: IGROV1 ovarian
K-562 leukemia = tested on: K-562 leukemia
KM12 colon = tested on: KM12 colon
LOX IMVI melanoma = tested on: LOX IMVI melanoma
M14 melanoma = tested on: M14 melanoma
MALME-3M melanoma = tested on: MALME-3M melanoma
MCF7 breast = tested on: MCF7 breast
MDA-MB-231 breast = tested on: MDA-MB-231 breast
MDA-MB-435 = tested on: MDA-MB-435
MDA-N = tested on: MDA-N
MOLT-4 leukemia = tested on: MOLT-4 leukemia
NCI-H226 lung = tested on: NCI-H226 lung
NCI-H23 lung = tested on: NCI-H23 lung
NCI-H460 lung = tested on: NCI-H460 lung
NCI-H522 lung = tested on: NCI-H522 lung
NCI/ADR-RES ovarian = tested on: NCI/ADR-RES ovarian
OVCAR-3 ovarian = tested on: OVCAR-3 ovarian
OVCAR-4 ovarian = tested on: OVCAR-4 ovarian
OVCAR-5 ovarian = tested on: OVCAR-5 ovarian
OVCAR-8 ovarian = tested on: OVCAR-8 ovarian
PC-3 prostate = tested on: PC-3 prostate
RPMI-8226 leukemia = tested on: RPMI-8226 leukemia
RXF 393 renal = tested on: RXF 393 renal
SF-268 CNS = tested on: SF-268 CNS
SF-295 CNS = tested on: SF-295 CNS
SF-539 CNS = tested on: SF-539 CNS
SK-MEL-2 melanoma = tested on: SK-MEL-2 melanoma
SK-MEL-28 melanoma = tested on: SK-MEL-28 melanoma
SK-MEL-5 melanoma = tested on: SK-MEL-5 melanoma
SK-OV-3 ovarian = tested on: SK-OV-3 ovarian
SN12C renal = tested on: SN12C renal
SNB-19 CNS = tested on: SNB-19 CNS
SNB-75 CNS = tested on: SNB-75 CNS
SR leukemia = tested on: SR leukemia
SW-620 colon = tested on: SW-620 colon
T-47D breast = tested on: T-47D breast
TK-10 renal = tested on: TK-10 renal
U251 CNS = tested on: U251 CNS
UACC-257 melanoma = tested on: UACC-257 melanoma
UACC-62 melanoma = tested on: UACC-62 melanoma
UO-31 renal = tested on: UO-31 renal

**Q.** Which results are given for `CC(=O)O[C@H]1C(=O)[C@@]2(C)[C@H]([C@H](OC(=O)c3ccccc3)[C@]3(O)C[C@H](OC(=O)[C@H](O)[C@@H](NC(=O)c4ccccc4)c4ccccc4C)C(C)=C1C3(C)C)[C@]1(OC(C)=O)CO[C@@H]1C[C@@H]2O`?
**A.** TGI (786-0 renal): 12.8 µM; TGI (A498 renal): 9.4 µM; TGI (A549 NSCLC): > 25 µM; TGI (ACHN renal): > 25 µM; TGI (BT-549 breast): > 11.8 µM; TGI (CAKI-1 renal): > 25 µM; TGI (CCRF-CEM leukemia): 2.7 µM; TGI (COLO 205 colon): 1.79 µM; TGI (DU-145 prostate): > 20.6 µM; TGI (EKVX NSCLC): > 25 µM; TGI (HCC-2998 colon): 7.11 µM; TGI (HCT-116 colon): 9.15 µM; TGI (HCT-15 colon): > 25 µM; TGI (HL-60(TB) leukemia): 0.228 µM; TGI (HOP-62 NSCLC): > 25 µM; TGI (HOP-92 NSCLC): 24.2 µM; TGI (HS 578T breast): 1.73 µM; TGI (HT29 colon): 18.4 µM; TGI (IGROV1 ovarian): > 25 µM; TGI (K-562 leukemia): 5.08 µM; TGI (KM12 colon): 5.75 µM; TGI (LOX IMVI melanoma): > 25 µM; TGI (M14 melanoma): 3.02 µM; TGI (MALME-3M melanoma): > 24 µM; TGI (MCF7 breast): > 16.1 µM; TGI (MDA-MB-231 breast): > 16.1 µM; TGI (MDA-MB-435): 0.289 µM; TGI (MDA-N): 0.392 µM; TGI (MOLT-4 leukemia): 5.35 µM; TGI (NCI-H226 lung): > 25 µM; TGI (NCI-H23 lung): > 11.6 µM; TGI (NCI-H460 lung): > 11.3 µM; TGI (NCI-H522 lung): 4.29 µM; TGI (NCI/ADR-RES ovarian): > 25 µM; TGI (OVCAR-3 ovarian): 4.87 µM; TGI (OVCAR-4 ovarian): > 23.3 µM; TGI (OVCAR-5 ovarian): 4.74 µM; TGI (OVCAR-8 ovarian): 12.7 µM; TGI (PC-3 prostate): > 9.4 µM; TGI (RPMI-8226 leukemia): 1.03 µM; TGI (RXF 393 renal): 3.97 µM; TGI (SF-268 CNS): > 25 µM; TGI (SF-295 CNS): > 9.21 µM; TGI (SF-539 CNS): 1.93 µM; TGI (SK-MEL-2 melanoma): 11.5 µM; TGI (SK-MEL-28 melanoma): > 15.2 µM; TGI (SK-MEL-5 melanoma): 3.05 µM; TGI (SK-OV-3 ovarian): > 12.7 µM; TGI (SN12C renal): > 25 µM; TGI (SNB-19 CNS): > 25 µM; TGI (SNB-75 CNS): 10.1 µM; TGI (SR leukemia): 4.06 µM; TGI (SW-620 colon): > 25 µM; TGI (T-47D breast): > 25 µM; TGI (TK-10 renal): 18.9 µM; TGI (U251 CNS): 6 µM; TGI (UACC-257 melanoma): > 11.7 µM; TGI (UACC-62 melanoma): > 15.8 µM; TGI (UO-31 renal): > 24.2 µM

**Q.** What does the source list for `CCn1cc(C(=O)O)c(=O)c2cc(F)c(N3CCN(CN4C(=O)/C(=N\c5ncc(Cc6cc(OC)c(OC)c(OC)c6)c(N)n5)c5cc(Cl)ccc54)CC3)cc21`?
**A.** TGI (786-0 renal): > 100 µM; TGI (A498 renal): > 100 µM; TGI (A549 NSCLC): > 100 µM; TGI (ACHN renal): > 100 µM; TGI (BT-549 breast): > 100 µM; TGI (CAKI-1 renal): > 100 µM; TGI (CCRF-CEM leukemia): > 100 µM; TGI (COLO 205 colon): > 100 µM; TGI (DU-145 prostate): > 100 µM; TGI (EKVX NSCLC): > 100 µM; TGI (HCC-2998 colon): > 100 µM; TGI (HCT-116 colon): > 100 µM; TGI (HCT-15 colon): > 100 µM; TGI (HL-60(TB) leukemia): > 100 µM; TGI (HOP-62 NSCLC): > 100 µM; TGI (HOP-92 NSCLC): > 100 µM; TGI (HS 578T breast): > 100 µM; TGI (HT29 colon): > 100 µM; TGI (IGROV1 ovarian): > 100 µM; TGI (K-562 leukemia): > 100 µM; TGI (KM12 colon): > 100 µM; TGI (LOX IMVI melanoma): > 100 µM; TGI (M14 melanoma): > 100 µM; TGI (MALME-3M melanoma): > 100 µM; TGI (MCF7 breast): > 100 µM; TGI (MDA-MB-231 breast): > 100 µM; TGI (MDA-MB-435): > 100 µM; TGI (MDA-N): > 100 µM; TGI (MOLT-4 leukemia): > 100 µM; TGI (NCI-H226 lung): > 100 µM; TGI (NCI-H23 lung): > 100 µM; TGI (NCI-H460 lung): > 100 µM; TGI (NCI-H522 lung): > 100 µM; TGI (NCI/ADR-RES ovarian): > 100 µM; TGI (OVCAR-3 ovarian): > 100 µM; TGI (OVCAR-4 ovarian): > 100 µM; TGI (OVCAR-5 ovarian): > 100 µM; TGI (OVCAR-8 ovarian): > 100 µM; TGI (PC-3 prostate): > 100 µM; TGI (RPMI-8226 leukemia): > 100 µM; TGI (RXF 393 renal): > 100 µM; TGI (SF-268 CNS): > 100 µM; TGI (SF-295 CNS): > 100 µM; TGI (SF-539 CNS): > 100 µM; TGI (SK-MEL-2 melanoma): > 100 µM; TGI (SK-MEL-28 melanoma): > 100 µM; TGI (SK-MEL-5 melanoma): > 100 µM; TGI (SK-OV-3 ovarian): > 100 µM; TGI (SN12C renal): > 100 µM; TGI (SNB-19 CNS): > 100 µM; TGI (SNB-75 CNS): > 100 µM; TGI (SR leukemia): > 100 µM; TGI (SW-620 colon): > 100 µM; TGI (T-47D breast): > 100 µM; TGI (TK-10 renal): > 100 µM; TGI (U251 CNS): > 100 µM; TGI (UACC-257 melanoma): > 100 µM; TGI (UACC-62 melanoma): > 100 µM; TGI (UO-31 renal): > 100 µM
